In publication PMC9820167, “Design and Synthesis of Conformationally Flexible Scaffold as Bitopic Ligands for Potent D3-Selective Antagonists” (International Journal of Molecular Sciences, 2022):
Where two headings read alike, the source gives them in different places.

What was measured:
D2 receptors = details: cited from earlier work
human D3 receptors [1] = molecular target: T1, human D3 receptors (Homo sapiens, UniProt P35462); test: Radioligand binding assay with [125I]IABN, D3 receptor; parameters: expressed in transfected cells; host or cells: HEK293; details: for Ki: [125I]IABN, D3 receptors expressed in HEK cells, mean ± SEM, three experiments, HCl salts, read-out: Ki ± SEM (nM) D3; for D2/D3: selectivity ratio of Ki D2 / Ki D3 (fold)
T1 sequence (P35462 whole entry): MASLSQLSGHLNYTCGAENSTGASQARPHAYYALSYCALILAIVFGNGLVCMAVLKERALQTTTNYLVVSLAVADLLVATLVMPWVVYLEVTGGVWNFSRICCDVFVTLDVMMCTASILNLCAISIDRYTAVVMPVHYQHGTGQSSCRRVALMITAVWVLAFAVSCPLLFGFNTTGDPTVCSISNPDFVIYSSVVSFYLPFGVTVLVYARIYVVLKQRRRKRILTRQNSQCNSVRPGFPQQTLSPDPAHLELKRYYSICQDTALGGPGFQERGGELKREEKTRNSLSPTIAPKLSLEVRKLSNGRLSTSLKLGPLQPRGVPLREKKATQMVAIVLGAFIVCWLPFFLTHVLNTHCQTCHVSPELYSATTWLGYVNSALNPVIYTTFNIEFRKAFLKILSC
Protocol: (§1) Two different assays were used to evaluate the properties of the analogs described above. The receptor binding affinity was measured by radioligand binding assays using [^125I]IABN with D2 or D3 receptors highly expressed HEK293 cells. The functional activity of the analogs was determined using a β-arrestin recruitment assay. The assay was initially conducted in agonist binding mode to confirm that they function as antagonists at the D3 receptor. Once this efficacy was confirmed, the assay was conducted in antagonist mode to determine the ability of the antagonist to compete with dopamine at the D3 receptor. The results of the antagonist mode assay are reported as IC50 values.
(§2) Ki values for D2 and D3 receptors were measured using [^125I]IABN in human D2 and D3 receptors expressed in HEK cells, respectively. A filtration binding assay was used to characterize membrane-associated receptor binding properties. The details for the procedures were described in the literature.

human D2 receptors = molecular target: T2, human D2 receptors (Homo sapiens, UniProt P14416); test: Radioligand binding assay with [125I]IABN, D2 receptor; details: [125I]IABN, D2 receptors expressed in HEK cells; mean ± SEM, three experiments; HCl salts; read-out: Ki ± SEM (nM) D2
T2 construct: expressed in transfected cells; host or cells: HEK293
T2 sequence (P14416 whole entry): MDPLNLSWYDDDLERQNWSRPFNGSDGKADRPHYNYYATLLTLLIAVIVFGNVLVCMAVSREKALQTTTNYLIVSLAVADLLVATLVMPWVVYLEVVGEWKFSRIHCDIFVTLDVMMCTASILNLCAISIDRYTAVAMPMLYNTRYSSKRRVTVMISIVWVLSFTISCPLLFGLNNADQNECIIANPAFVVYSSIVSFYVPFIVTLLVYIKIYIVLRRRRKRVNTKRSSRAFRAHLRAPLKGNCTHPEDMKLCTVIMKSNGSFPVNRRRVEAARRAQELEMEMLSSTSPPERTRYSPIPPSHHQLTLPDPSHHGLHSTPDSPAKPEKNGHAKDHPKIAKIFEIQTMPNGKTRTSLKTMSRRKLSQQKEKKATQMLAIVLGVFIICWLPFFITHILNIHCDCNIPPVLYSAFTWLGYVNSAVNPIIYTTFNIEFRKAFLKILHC
Protocol: Two different assays were used to evaluate the properties of the analogs described above. The receptor binding affinity was measured by radioligand binding assays using [^125I]IABN with D2 or D3 receptors highly expressed HEK293 cells. The functional activity of the analogs was determined using a β-arrestin recruitment assay. […] The results of the antagonist mode assay are reported as IC50 values.
as §2

human D3 receptors [2] = molecular target: T1, human D3 receptors; test: β-arrestin recruitment assay (antagonist mode, competition with dopamine); type: cell-based; parameters: expressed in transfected cells; details: for Emax: percentage of the maximum inhibition of dopamine at EC80 concentration, read-out: Imax (% Control); for IC50: potency for D3 receptors, CHO-K1 cells, vs 30 nM (EC80) dopamine, mean ± SD, three experiments, read-out: IC50
Protocol: as §1
CHO-K1 cells which were overexpressed human D3 receptors were cultured in assaycomplete^TM cell culture kit 107. Cells were seeded at a density of 25,000 cells per well of 96-well plate, and incubated at 5% CO2, 37 °C. Two days later, test compounds were dissolved in DMSO, and diluted with 11-point series in phosphate-buffered saline (PBS). Prepared compounds were added to the cells, and it was incubated for 30 min at 5% CO2, 37 °C. Then, cells were treated with 30 nM (EC80) of dopamine, and the plate was incubated another 90 min. PathHunter^TM detection reagent was added to each well, and then plate was incubated for 80 min at RT in the dark. The chemiluminescent signal was measured by PerkinElmer Enspire plate reader (PerkinElmer, Boston, MA). Data were analyzed by Prism followed by non-linear regression.

Row | Compound | Ki (D2 receptors; read-out: Ki D2) | Ki (human D3 receptors [1]) | Ki (human D2 receptors) | D2/D3 (human D3 receptors [1]) | Emax (human D3 receptors [2]) | IC50 (human D3 receptors [2]) | Ki (D2 receptors; read-out: Ki for D2/D3 receptors (D2))
1 | C=CCN1CCC[C@H]1CNC(=O)c1cc(CCCF)cc(OC)c1OC [fallypride] | 0.02 nM |  |  |  |  |  | 
2 | CCN(C)CCCNC(=O)c1ccc(-c2cccs2)cc1 [compound 14, N-(3-(Ethyl(methyl)amino)propyl)-4-(thiophen-2-yl)benzamide] |  | > 1000 nM | > 1000 nM |  |  |  | 
3 | C=CCN(CCCNC(=O)c1ccc(-c2cccs2)cc1)CCNC(=O)c1cc(Br)cc(OC)c1OC [20b, N-(2-(Allyl(3-(4-(thiophen-2-yl)benzamido)propyl)amino)ethyl)-5-bromo-2,3-dimethoxybenzamide] |  | 5.8 ± 1 nM | 243 ± 15 nM | 46.7 | 101 ± 7.9% | 51.6 ± 40.8 nM | 
4 | CCN(CCCCN(C)C)CCNC(=O)c1cc(Br)cc(OC)c1OC [6c, 5-Bromo-N-(2-((4-(dimethylamino)butyl)(ethyl)amino)ethyl)-2,3-dimethoxybenzamide] |  | 1630 ± 165 nM | 5420 ± 1040 nM | 3.3 | 98 ± 5.6% | > 1000 nM | 
5 | CCN(C)CCNC(=O)c1cc(Br)cc(OC)c1OC [compound 12, 5-Bromo-N-(2-(ethyl(methyl)amino)ethyl)-2,3-dimethoxybenzamide] |  | 21.8 ± 5.1 nM | 89.2 ± 5.6 nM |  |  |  | 
6 | CCN(CCCCCSc1nnc(-c2ccccc2)n1C)CCNC(=O)c1cc(Br)cc(OC)c1OC [11b, 5-Bromo-N-(2-(ethyl(5-((4-methyl-5-phenyl-4H-1,2,4-triazol-3-yl)thio)pentyl)amino)ethyl)-2,3-dimethoxybenzamide] |  | 22.2 ± 1.8 nM | 89.7 ± 3.6 nM | 4.6 |  |  | 
7 | CCN(CCCNC(=O)c1cccc(N(C)C)c1)CCNC(=O)c1cc(Br)cc(OC)c1OC [21h, 5-Bromo-N-(2-((3-(3-(dimethylamino)benzamido)propyl)(ethyl)amino)ethyl)-2,3-dimethoxybenzamide] |  | 11.2 ± 1.4 nM | 248 ± 19 nM | 22.1 | 73.8 ± 14.9% | 4.1 ± 2.1 nM | 
8 | CCN(CCCCSc1nnc(-c2ccccc2)n1C)CCNC(=O)c1cc(Br)cc(OC)c1OC [11a, 5-Bromo-N-(2-(ethyl(4-((4-methyl-5-phenyl-4H-1,2,4-triazol-3-yl)thio)butyl)amino)ethyl)-2,3-dimethoxybenzamide] |  | 125 ± 2 nM | 342 ± 23 nM | 2.7 |  |  | 
9 | CCN(CCCCCN(C)C)CCNC(=O)c1cc(Br)cc(OC)c1OC [6d, 5-Bromo-N-(2-((5-(dimethylamino)pentyl)(ethyl)amino)ethyl)-2,3-dimethoxybenzamide] |  | 141 ± 26 nM | 449 ± 90 nM | 3.2 | 94 ± 6.4% | 152 ± 185 nM | 
10 | CCN(CCCCNC(=O)c1ccc(-c2cccs2)cc1)CCNC(=O)c1cc(Br)cc(OC)c1OC [9b, 5-Bromo-N-(2-(ethyl(4-(4-(thiophen-2-yl)benzamido)butyl)amino)ethyl)-2,3-dimethoxybenzamide] |  | 8 ± 0.8 nM | 103 ± 14 nM | 12.9 | 70.8 ± 7.3% | 104 ± 136 nM | 
11 | CCN(CCCCCN(C)C)CCNC(=O)c1cc(CCCF)cc(OC)c1OC [6b, N-(2-((5-(Dimethylamino)pentyl)(ethyl)amino)ethyl)-5-(3-fluoropropyl)-2,3-dimethoxybenzamide] |  | 1240 ± 438 nM | 2810 ± 571 nM | 2.3 | 98.4 ± 2.9% | 430 ± 467 nM | 
12 | CCN1CCC[C@H]1CNC(=O)c1cc(Br)cc(OC)c1OC [[^11C]FLB457, FLB457] |  |  |  |  |  |  | 0.02 nM
13 | COc1cc(Br)cc(C(=O)NCCN(CCCNC(=O)c2ccc(-c3cccs3)cc2)Cc2ccc(F)cc2)c1OC [20c, 5-Bromo-N-(2-((4-fluorobenzyl)(3-(4-(thiophen-2-yl)benzamido)propyl)amino)ethyl)-2,3-dimethoxybenzamide] |  | 299 ± 101 nM | 574 ± 170 nM | 1.9 |  |  | 
14 | CCN(CCCCN(C)C)CCNC(=O)c1cc(CCCF)cc(OC)c1OC [6a, N-(2-((4-(Dimethylamino)butyl)(ethyl)amino)ethyl)-5-(3-fluoropropyl)-2,3-dimethoxybenzamide] |  | 1760 ± 942 nM | 4560 ± 2450 nM | 2.6 | 92.7 ± 5.4% | > 1000 nM | 
15 | CCN(CCCNC(=O)c1ccnc2ccccc12)CCNC(=O)c1cc(Br)cc(OC)c1OC [21b, N-(3-((2-(5-Bromo-2,3-dimethoxybenzamido)ethyl)(ethyl)amino)propyl)quinoline-4-carboxamide] |  | 13.2 ± 0.5 nM |  | 39.8 | 75.2 ± 4.8% | 19.6 ± 23.7 nM | 
16 | CCN(CCCNC(=O)c1ccncc1)CCNC(=O)c1cc(Br)cc(OC)c1OC [21f, N-(3-((2-(5-Bromo-2,3-dimethoxybenzamido)ethyl)(ethyl)amino)propyl)isonicotinamide] |  | 6.1 ± 0.6 nM | 327 ± 32 nM | 53.7 | 85.7 ± 13.1% | 2.7 ± 0.6 nM | 
